Measurements from patent US9079906B2, “Triazolopyridazines as PAR1 inhibitors, production thereof, and use as medicaments” (Sanofi, priority 2008, dated 2015).
Counter-ions that a name gives are not always drawn.

The compounds below were run against T1, PAR1 (Homo sapiens (Human), UniProt P25116) (assay: Inhibition of PAR1-mediated platelet aggregation induced by TRAP). Conditions: TRAP-induced aggregation of washed platelets from healthy volunteer donors, 96-well format.
Assay type: cell-based
Protocol: PAR1 determination method: inhibition of PAR1-mediated platelet aggregation
The pharmacological testing of the substances took place in platelet aggregation induced by TRAP (thrombin receptor-activating peptide) in 96-well format. For this purpose, blood was taken from healthy volunteer donors in 20 ml syringes containing 2 ml of 3.13% sodium citrate solution. After centrifugation at 150×g for 20 minutes, the platelet-rich plasma (PRP) was separated off and mixed with 1 μl of PGE1 solution (500 μg/ml in ethanol)/ml of PRP. Incubation at RT for 5 minutes was followed by centrifugation at 120×g for 15 minutes to remove the leukocytes. The leukocyte-free PRP was transferred in 5 ml portions into 15 ml PP tubes and centrifuged at 360×g for 15 minutes in order to pellet the platelets. The plasma was then decanted off and the platelet sediment from 5 ml of PRP was resuspended in 1 ml of Tyrode's (120 mM NaCl, 2.6 mM KCl, 12 mM NaHCO3, 0.39 mM NaH2PO4×H2O, 10 mM HEPES, 0.35% BSA, 5.5 mM glucose, pH 7.4) and adjusted with Tyrode's to a platelet count of 3×10^5/microliter (μL). 13 ml of this cell suspension were then mixed with 866 μL of 10 mM CaCl2 solution, and 120 μL thereof were pipetted into each well of a 96-well plate containing 15 μL of the substance to be tested. After incubation at room temperature in the dark for 30 minutes, 15 μL of a TRAP solution (70-100 μM) were added as agonist, and kinetics were recorded at 650 nm in a SpectraMax 340 at 37° C. for 20 minutes while shaking. The areas under the curves of negative control (Tyrode's/DMSO) and positive control (15 μl of agonist/DMSO) were calculated and the difference was fixed as the 100% value. The substances to be tested were pipetted as serial dilutions in duplicate determination, the AUC was likewise determined for each substance concentration, and the % inhibition of the AUC compared with the control was calculated. On the basis of the % inhibition, the IC50 was calculated by nonlinear regression analysis according to the 4-parameter equation.

T1 sequence (P25116 22-425): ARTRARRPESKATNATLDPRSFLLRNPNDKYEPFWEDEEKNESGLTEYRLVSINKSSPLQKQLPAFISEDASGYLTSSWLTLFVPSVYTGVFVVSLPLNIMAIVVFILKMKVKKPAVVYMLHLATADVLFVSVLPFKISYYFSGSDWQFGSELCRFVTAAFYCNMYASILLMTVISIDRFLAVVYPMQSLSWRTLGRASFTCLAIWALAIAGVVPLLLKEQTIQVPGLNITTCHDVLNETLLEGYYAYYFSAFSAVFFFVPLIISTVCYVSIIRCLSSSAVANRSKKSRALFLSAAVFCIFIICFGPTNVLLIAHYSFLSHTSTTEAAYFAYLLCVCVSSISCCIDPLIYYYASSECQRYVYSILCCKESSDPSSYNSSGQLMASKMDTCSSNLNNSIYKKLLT

`CCC(CC)Oc1cc(C)c2nn(CC(=O)c3cc(COCCCO)cc(C(C)(C)C)c3)c(=N)n2n1` [Example 77, 1-[3-tert-butyl-5-(3-hydroxy-propoxymethyl)phenyl]-2-[6-(1-ethylpropoxy)-3-imino-8-methyl-[1,2,4]triazolo[4,3-b]-pyridazin-2-yl]ethanone hydrochloride] and `CCC(CC)Oc1cc(C)c2nn(CC(=O)c3cc(OCCCO)cc(C(C)(C)C)c3)c(=N)n2n1` [Example 90, 1-[3-tert-butyl-5-(3-hydroxy-propoxy)phenyl]-2-[6-(1-ethyl-propoxy)-3-imino-8-methyl-[1,2,4]triazolo[4,3-b]pyridazin-2-yl]ethanone hydrochloride] are within 1.5-fold of each other in IC50: 9 nM for the first, 12 nM for the second.

Going from `COCC(COC)Oc1cc(C)c2nn(CC(=O)c3cc(OCCO)cc(C(C)(C)C)c3)c(=N)n2n1` [Example 98, 1-[3-tert-butyl-5-(2-hydroxy-ethoxy)phenyl]-2-[3-imino-6-(2-methoxy-1-methoxymethyl-ethoxy)-8-methyl-[1,2,4]triazolo[4,3-b]pyridazin-2-yl]ethanone hydrochloride] to `CCC(CC)Oc1cc(C)c2nn(CC(=O)c3cc(OCCOC)cc(C(C)(C)C)c3)c(=N)n2n1` [Example 66, 1-[3-tert-butyl-5-(2-methoxy-ethoxy)phenyl]-2-[6-(1-ethylpropoxy)-3-imino-8-methyl-[1,2,4]triazolo[4,3-b]pyridazin-2-yl]ethanone hydrochloride], the IC50 falls from 334 nM to 25 nM (13-fold).

Going from `CCC(CC)Oc1ccc2nn(CC(=O)c3cc(NC)cc(S(F)(F)(F)(F)F)c3)c(=N)n2n1` [Example 16, 2-[6-(1-ethylpropoxy)-3-imino-[1,2,4]triazolo[4,3-b]pyridazin-2-yl]-1-[3-methylamino-5-(pentafluorosulfanyl)phenyl]ethanone trifluoroacetic acid salt] to `CCOc1ccc2nn(CC(=O)c3cc(NC(C)=O)cc(S(F)(F)(F)(F)F)c3)c(=N)n2n1` [Example 1, N-[3-[2-(6-Ethoxy-3-imino-[1,2,4]triazolo[4,3-b]pyridazin-2-yl)acetyl]-5-(pentafluorosulfanyl)phenyl]acetamide as the trifluoroacetic acid salt], the IC50 rises from 127 nM to 650 nM (5.1-fold). The first is the more potent here.

Compared with `CCOc1ccc2nn(CC(=O)c3cc(N4CCOCC4)c(OC)c(C(C)(C)C)c3)c(=N)n2n1` [Example 7, 1-(3-tert-butyl-4-methoxy-5-morpholin-4-ylphenyl)-2-(6-ethoxy-3-imino-[1,2,4]triazolo[4,3-b]pyridazin-2-yl)ethanone trifluoroacetic acid salt], `CCOc1ccc2nn(CC(=O)c3cc(N4CCOCC4)c(OC)c(C(F)(F)F)c3)c(=N)n2n1` [Example 5, 2-(6-Ethoxy-3-imino-[1,2,4]triazolo[4,3-b]pyridazin-2-yl)-1-(4-methoxy-3-morpholin-4-yl-5-trifluormethylphenyl)ethanone trifluoroacetic acid salt] is 54-fold higher in IC50: 158 nM for the first, 8500 nM for the second. The first is the more potent here.

Compared with `CCC(CC)Oc1nn2c(=N)n(CC(=O)c3cc(OC)cc(S(F)(F)(F)(F)F)c3)nc2c(C)c1C` [Example 85, 2-[6-(1-ethylpropoxy)-3-imino-7,8-dimethyl-[1,2,4]triazolo[4,3-b]pyridazin-2-yl]-1-[3-methoxy-5-(pentafluorosulfanyl)-phenyl]ethanone trifluoroacetic acid salt], `CCN(CC)c1cc(C)c2nn(CC(=O)c3cc(OC)cc(S(F)(F)(F)(F)F)c3)c(=N)n2n1` [Example 108, 2-(6-diethylamino-3-imino-8-methyl-[1,2,4]triazolo[4,3-b]pyridazin-2-yl)-1-[3-methoxy-5-(pentafluorosulfanyl)phenyl]-ethanone trifluoroacetic acid salt] is 3.7-fold lower in IC50: 59 nM for the first, 16 nM for the second. The second is the more potent here.

For `CC(C)(C)c1cc(C(=O)Cn2nc3ccc(Cl)nn3c2=N)cc(C(C)(C)C)c1O` [Example 2, 2-(6-chloro-3-imino-[1,2,4]triazolo[4,3-b]pyridazin-2-yl)-1-(3,5-di-tert-butyl-4-hydroxyphenyl)ethanone], the IC50 was 1600 nM.

What follows are compounds tested against T1, PAR1 (assay: PAR1 binding test (radioligand displacement, membrane preparation)). Conditions: human PAR1 expressed in High Five insect cell membranes; radioligand 20 nM; read-out: Inhibition of binding IC50.
Protocol: The synthesized substances were examined in a PAR1 binding test. This tested whether the substances can inhibit the binding of a radioactively labeled PAR1 agonist known from the literature at the PAR1 receptor (Ho-Sam Ahn, Mol Pharm, 51:350-356, 1997). The human PAR1 receptor was expressed transiently in High Five insect cells. From these cells, after 48 hours, a membrane preparation was produced by standard methods, aliquoted into 10 mM Tris-HCl; 0.3 mM EDTA; 1 mM EGTA; 250 mM sucrose pH 7.5, and stored at −80° C.
The substances were preincubated with the membrane at room temperature for 15 minutes, then the radioligand (ALA-(para-F-Phe)-Arg-ChA-homoArg-(3,4-^3H-Tyr)-NH2; approx. 40 Ci/mMol) was added. The end concentration of the radioligand in the test buffer (50 mM Tris-HCl; 10 mM MgCl2; 1 mM EGTA; 0.1% BSA; 2% DMSO) was 20 nM, that of the membrane 1 mg/ml. After an incubation time of 60 minutes, 25 μL of the mixture were transferred to a 96-well MultiScreenHTS FB microtiter filtration plate (from Millipore), which had been pretreated beforehand with a 0.75% aqueous polyethyleneimine solution for 5 hours at room temperature. Thereafter, with vacuum extraction, each well was washed four times with 300 μL of buffer (50 mM Tris-HCl; 10 mM MgCl2; 1 mM EGTA). The plate was then dried overnight, 100 μl of scintillator per well were added, and the plate was analyzed after 6 hours in a Wallac MicroBeta (from PerkinElmer) liquid scintillation counter. The nonspecific binding was determined in the presence of 100 μM SCH79797 (PAR-1 antagonist; from Tocris, Cat. No. 1592) and subtracted from all measurements. The 100% value used was a control without inhibitor. The % inhibition values of a substance dilution series were used to calculate the IC50 with the aid of nonlinear regression analysis according to the 4-parameter equation.

First: CCOc1nn2c(=N)n(CC(=O)c3cc(OCCCCO)c(OC)c(C(C)(C)C)c3)nc2c(C)c1C [Example 178, 1-[3-tert-butyl-5-(4-hydroxy-butoxy)-4-methoxyphenyl]-2-(6-ethoxy-3-imino-7,8-dimethyl-[1,2,4]triazolo[4,3-b]pyridazin-2-yl)ethanone hydrochloride]
Second: CCOc1nn2/c(=N/C)n(CC(=O)c3cc(OCCO)cc(C(C)(C)C)c3)nc2c(C)c1C [Example 163, 1-[3-tert-butyl-5-(2-hydroxy-ethoxy)phenyl]-2-{6-ethoxy-7,8-dimethyl-3-[(E)-methylimino]-[1,2,4]triazolo[4,3-b]pyridazin-2-yl}ethanone hydrochloride]
The IC50 of the first is 2.9-fold lower: 126 nM for the first, 364 nM for the second.
